Results published in patent US8388986B2, “Use of cationic surfactants in cosmetic preparations” (priority 2001, dated 2013).

Legend:
[1] = tested on: Fungi; assay: preservative efficacy (Antimicrobial Effectiveness Testing USP 24th Edition) in cosmetic formulations; format: cell-based, Aspergillus niger ATCC 16404; settings: 0.20 g of LAE
Method: (§1) This assay consists of the contamination of the protecting formulations with an inoculum mixture of 10^8 cfu/mL concentration, for each of the microorganisms, and the determination of the number of viable cells in the time. This inoculum mixture is composed of the following microorganisms:
(§2) The cosmetic composition to be analysed is divided into sterile containers with 50 g of product for each flask. Each container is inoculated with 0.5 mL of inoculum (10^8 cfu/mL). The target concentration is 10^6 cfu/mL, approximately. All the containers are kept at a temperature between 20-25° C. and are protected from light.
(§3) The level of the microbial contamination is checked at 0 hours, 7 days, 14 days and 28 days. The number of colonies is evaluated by dilution in buffer peptone with the appropriate neutraliser agent of the preservative. The culture media used for counting the microorganisms are: Soya triptone (35-37° C., 48 hours) for the determination of bacteria; Sabouraud agar with chloramphenicol for fungi and yeast (25° C., 3-5 days).
(§4) According to Antimicrobial Effectiveness Testing USP 24th Edition, 1999 (pp. 1809-1811), an antimicrobial preservative is considered to be effective in topically used products made with aqueous bases or vehicles, non-sterile nasal products and emulsions, including those applied to mucous membranes, if: • Not less than 2.0 logarithm reduction from the initial calculated bacteria's count is reached at 14 days and no increase from the 14 days' count at 28 days is detected; and • No increase from the initial calculated count of yeast and moulds is observed.

[2] = tested on: Arthrobacter oxydans ATCC 8010; assay: minimum inhibitory concentration; format: cell-based; settings: Gram + Bacteria
[3] = tested on: inoculum mixture; assay: preservative efficacy (Antimicrobial Effectiveness Testing USP 24th Edition), 28 days' check; format: cell-based; settings: 0.20 g of LAE
Method: as §1, §2, §3, §4

[4] = tested on: Aspergillus niger ATCC 14604; assay: minimum inhibitory concentration; format: cell-based; settings: Fungi

CCCCCCCCCCCC(=O)N[C@@H](CCCN=C(N)N)C(=O)OCC.Cl [LAE, ethyl ester of the lauramide of the arginine monohydrochloride]
viable count With LAE ([1]; Example 3, water in oil emulsion with non-ionic emulsifiers, 7 days): <9.9 · 10^1 cfu/mL | viable count With LAE ([1]; Example 3, water in oil emulsion with non-ionic emulsifiers, 14 days): <9.9 · 10^1 cfu/mL | viable count With LAE ([1]; Example 3, water in oil emulsion with non-ionic emulsifiers, Initial): 1.0 · 10^4 cfu/mL | viable count With LAE ([1]; Example 4, aqueous solution with a surfactants' mixture (bath gels, disodium cocoamfoacetate), 7 days): 2.7 · 10^2 cfu/mL | viable count With LAE ([1]; Example 4, aqueous solution with a surfactants' mixture (bath gels, disodium cocoamfoacetate), 14 days): <9.9 · 10^1 cfu/mL | viable count With LAE ([1]; Example 4, aqueous solution with a surfactants' mixture (bath gels, disodium cocoamfoacetate), Initial): 1.9 · 10^4 cfu/mL | viable count With LAE ([1]; Example 5, aqueous solution with a surfactants' mixture (bath gels, disodium lauryl sulfosuccinate), 7 days): <9.9 · 10^1 cfu/mL | viable count With LAE ([1]; Example 5, aqueous solution with a surfactants' mixture (bath gels, disodium lauryl sulfosuccinate), 14 days): <9.9 · 10^1 cfu/mL | viable count With LAE ([1]; Example 5, aqueous solution with a surfactants' mixture (bath gels, disodium lauryl sulfosuccinate), Initial): 1.4 · 10^4 cfu/mL | viable count With LAE ([1]; Example 6, hydroalcoholic gel (after-shaving lotions), 7 days): 4.1 · 10^2 cfu/mL | viable count With LAE ([1]; Example 6, hydroalcoholic gel (after-shaving lotions), 14 days): <9.9 · 10^1 cfu/mL | viable count With LAE ([1]; Example 6, hydroalcoholic gel (after-shaving lotions), Initial): 9.1 · 10^4 cfu/mL | viable count With LAE ([1]; Example 7, facial tonic, 7 days): 1.3 · 10^2 cfu/mL | viable count With LAE ([1]; Example 7, facial tonic, 14 days): <9.9 · 10^1 cfu/mL | viable count With LAE ([1]; Example 7, facial tonic, Initial): 2.1 · 10^4 cfu/mL | viable count With LAE ([1]; Example 8, mask-up cleaner, 7 days): 3.5 · 10^2 cfu/mL | viable count With LAE ([1]; Example 8, mask-up cleaner, 14 days): <9.9 · 10^1 cfu/mL | viable count With LAE ([1]; Example 8, mask-up cleaner, Initial): 7.6 · 10^4 cfu/mL | viable count With LAE ([1]; Example 9, fluid oil-in-water emulsion with non-ionic surfactants (body oil), 7 days): 1.4 · 10^2 cfu/mL | viable count With LAE ([1]; Example 9, fluid oil-in-water emulsion with non-ionic surfactants (body oil), 14 days): <9.9 · 10^1 cfu/mL | viable count With LAE ([1]; Example 9, fluid oil-in-water emulsion with non-ionic surfactants (body oil), Initial): 7.6 · 10^4 cfu/mL | viable count With LAE ([1]; Example 10, toothpaste formulation, 7 days): 1.6 · 10^2 cfu/mL | viable count With LAE ([1]; Example 10, toothpaste formulation, 14 days): <9.9 · 10^1 cfu/mL | viable count With LAE ([1]; Example 10, toothpaste formulation, Initial): 5.6 · 10^4 cfu/mL | viable count With LAE ([1]; Example 11, aqueous solution with surfactants (shampoos), 7 days): 1.1 · 10^2 cfu/mL | viable count With LAE ([1]; Example 11, aqueous solution with surfactants (shampoos), 14 days): <9.9 · 10^1 cfu/mL | viable count With LAE ([1]; Example 11, aqueous solution with surfactants (shampoos), Initial): 9.6 · 10^4 cfu/mL | viable count With LAE ([1]; Example 12, oil-in-water emulsion with non-ionic surfactants (face cream), 7 days): 8.7 · 10^2 cfu/mL | viable count With LAE ([1]; Example 12, oil-in-water emulsion with non-ionic surfactants (face cream), 14 days): <9.9 · 10^1 cfu/mL | viable count With LAE ([1]; Example 12, oil-in-water emulsion with non-ionic surfactants (face cream), Initial): 1.7 · 10^4 cfu/mL | viable count With LAE ([1]; Example 13, oil-in-water emulsion with non-ionic surfactants (sun protector, polysorbate 60), 7 days): 2.7 · 10^2 cfu/mL | viable count With LAE ([1]; Example 13, oil-in-water emulsion with non-ionic surfactants (sun protector, polysorbate 60), 14 days): <9.9 · 10^1 cfu/mL | viable count With LAE ([1]; Example 13, oil-in-water emulsion with non-ionic surfactants (sun protector, polysorbate 60), Initial): 4.9 · 10^4 cfu/mL | viable count With LAE ([1]; Example 14, oil-in-water emulsion with non-ionic surfactants (sun protector, cetyl dimethicone copolyol), 7 days): 6.7 · 10^2 cfu/mL | viable count With LAE ([1]; Example 14, oil-in-water emulsion with non-ionic surfactants (sun protector, cetyl dimethicone copolyol), 14 days): <9.9 · 10^1 cfu/mL | viable count With LAE ([1]; Example 14, oil-in-water emulsion with non-ionic surfactants (sun protector, cetyl dimethicone copolyol), Initial): 5.3 · 10^4 cfu/mL | viable count With LAE ([1]; Example 15, emulsion for hands care, 7 days): 8.7 · 10^2 cfu/mL | viable count With LAE ([1]; Example 15, emulsion for hands care, 14 days): <9.9 · 10^1 cfu/mL | viable count With LAE ([1]; Example 15, emulsion for hands care, Initial): 5.8 · 10^4 cfu/mL | M.I.C. [2]: 64 ppm | count at 28 days against the 14 days' count ([3]; Example 1, oil-in-water emulsion with non-ionic surfactant): no increase | count at 28 days against the 14 days' count ([3]; Example 2, oil-in-water emulsion with an ionic emulsifier): no increase | count at 28 days against the 14 days' count ([3]; Example 3, water in oil emulsion with non-ionic emulsifiers): no increase | count at 28 days against the 14 days' count ([3]; Example 4, aqueous solution with a surfactants' mixture (bath gels, disodium cocoamfoacetate)): no increase | count at 28 days against the 14 days' count ([3]; Example 5, aqueous solution with a surfactants' mixture (bath gels, disodium lauryl sulfosuccinate)): no increase | count at 28 days against the 14 days' count ([3]; Example 6, hydroalcoholic gel (after-shaving lotions)): no increase | count at 28 days against the 14 days' count ([3]; Example 7, facial tonic): no increase | count at 28 days against the 14 days' count ([3]; Example 8, mask-up cleaner): no increase | count at 28 days against the 14 days' count ([3]; Example 9, fluid oil-in-water emulsion with non-ionic surfactants (body oil)): no increase | count at 28 days against the 14 days' count ([3]; Example 10, toothpaste formulation): no increase | count at 28 days against the 14 days' count ([3]; Example 11, aqueous solution with surfactants (shampoos)): no increase | count at 28 days against the 14 days' count ([3]; Example 12, oil-in-water emulsion with non-ionic surfactants (face cream)): no increase | count at 28 days against the 14 days' count ([3]; Example 13, oil-in-water emulsion with non-ionic surfactants (sun protector, polysorbate 60)): no increase | count at 28 days against the 14 days' count ([3]; Example 14, oil-in-water emulsion with non-ionic surfactants (sun protector, cetyl dimethicone copolyol)): no increase | count at 28 days against the 14 days' count ([3]; Example 15, emulsion for hands care): no increase | M.I.C. [4]: 32 ppm
